Test results from patent US12351556B2, “Pyridin-2(1H)one derivatives, their preparation and their use for the treatment of pain” (INSTITUT NATIONAL DE LA SANTE ET DE LA RECHERCHE MEDICALE …, priority 2019, dated 2025).
Entries after “also recorded” stand apart in the source; their conditions may differ.

Experiments:
[1] = system: facial neuropathic MA (IoN-CCl); test: Neuropathic MA: chronic constriction injury of the infraorbital nerve (IoN-CCl); assay type: in vivo; settings: rat, intracisternal 5 μL at 100 μM, 14 days after IoN-CCl
Procedure: Time courses of changes in behavioral responses (allodynic score) evoked by normally innocuous mechanical stimuli (6-g von Frey filament) applied on the face of rats intracisternally treated with compound 69 (5 μL at 100 μM) or vehicle. In A, compound 69 or vehicle was preemptively applied 30 min before subcutaneous injection of CFA (at time 0). In B, compound 69 or vehicle was applied (at time 0) 14 days after IoN-CCl; that is, once a stable MA was established. […] Results are presented as mean±s.e.m.; n=4 (A) and n=5 (B) in each group. Allodynic score (from 0 to 4) according to Vos et al. J. Neurosci. 1994, 14, 2708-2723.
Rat model of neuropathic MA: chronic constriction injury of the rat's infraorbital nerve (IoN-CCl).
IoN-CCl was performed following a previously established surgical procedure Vos et al J. Neurosci. […]
For investigating the effects of synthetized compounds upon mechanical allodynia, animals were briefly (<2 min) anesthetized using a mask with 2% isoflurane and received an intracisternal injection of 5 μL of compound (100 μM) or vehicle alone (saline+1% DMSO) using a 10 μL Hamilton syringe. […] The behavioral responses were observed and quantified by a second experimenter (see below). […]
Compound 69 was also evaluated in a rat model of facial neuropathic MA produced by the constriction injury of the rat infraorbital nerve (IoN-CCl; J. Neurosci. 1994, 14, 2708-2723) (FIG. 2B). […]

p38d MAPK = p38d MAPK (Homo sapiens (Human), UniProt O15264); test: ICKP protein kinase panel screening; assay type: biochemical; settings: duplicate assays, read-out: mean % residual activity
Chain of p38d MAPK (O15264 whole entry): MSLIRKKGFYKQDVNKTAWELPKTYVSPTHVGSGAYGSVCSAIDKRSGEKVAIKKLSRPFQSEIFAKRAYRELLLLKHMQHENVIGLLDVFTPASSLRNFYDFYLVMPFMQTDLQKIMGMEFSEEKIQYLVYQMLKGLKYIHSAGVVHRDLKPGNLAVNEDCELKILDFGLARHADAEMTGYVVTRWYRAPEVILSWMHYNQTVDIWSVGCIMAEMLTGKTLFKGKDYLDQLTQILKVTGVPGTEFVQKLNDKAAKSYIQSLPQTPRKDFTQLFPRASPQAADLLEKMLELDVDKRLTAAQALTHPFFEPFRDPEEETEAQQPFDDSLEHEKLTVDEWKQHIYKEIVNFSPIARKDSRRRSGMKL
Procedure: (§1) FIG. 4 illustrates the studies carried out for compounds 67 and 69. Compounds 67 and 69 (FIG. 4B) were evaluated at the International Center For Kinase Profiling (ICKP, Dundee, Scotland) toward a panel of 13 protein kinases. The results (FIG. 4A) were expressed as the mean percentage of residual activity at 1 μM concentration (duplicate assays). Small disks: ≥90%, larger disk: 59%, for both compounds. The tree was generated using the Kinome Render software, and the illustration reproduced courtesy of Cell Signaling Technology, Inc. (www.cellsignal.com) Chartier et al PeerJ 2013, 1:e126.
(§2) Results are expressed as the mean percentage of residual activity at 10 μM (Table 3) or 1 μM (Table 4). They are illustrated on FIGS. 3 and 4.
(§3) The selectivity of compound 69 was evaluated at 1 μM toward another panel containing all four p38 MAPK isoforms, ERK1, ERK2 as well as other protein kinases close to p38α MAPK in the kinome phylogenetic tree (FIG. 4, Table 4). […] Its IC50 toward p38α MAPK was determined, showing a value in the micromolar range (IC50=3.0±0.1 μM).

JNK2 = JNK2 (Homo sapiens (Human), UniProt P45984); test: ICKP protein kinase panel screening; assay type: biochemical; settings: duplicate assays, read-out: mean % residual activity
Chain of JNK2 (P45984 whole entry): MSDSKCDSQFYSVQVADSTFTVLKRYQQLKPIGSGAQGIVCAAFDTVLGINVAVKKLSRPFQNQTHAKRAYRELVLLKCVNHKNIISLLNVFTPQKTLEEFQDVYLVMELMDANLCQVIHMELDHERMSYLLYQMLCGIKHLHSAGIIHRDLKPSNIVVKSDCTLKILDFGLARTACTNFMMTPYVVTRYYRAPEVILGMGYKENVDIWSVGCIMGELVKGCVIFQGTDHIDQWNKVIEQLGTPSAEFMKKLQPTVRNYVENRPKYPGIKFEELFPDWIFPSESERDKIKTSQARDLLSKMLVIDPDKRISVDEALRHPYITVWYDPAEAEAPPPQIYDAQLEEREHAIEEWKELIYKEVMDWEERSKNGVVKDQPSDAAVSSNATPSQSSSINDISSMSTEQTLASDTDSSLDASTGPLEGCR
Procedure: as §1, §2, §3

CDK2-Cyclin A = CDK2-Cyclin A (Homo sapiens (Human), UniProt P24941); test: ICKP protein kinase panel screening; assay type: biochemical; settings: duplicate assays, read-out: mean % residual activity
Procedure: as §1, §2, §3

ERK5 = ERK5 (Homo sapiens (Human), UniProt Q13164); test: ICKP protein kinase panel screening; assay type: biochemical; settings: duplicate assays, read-out: mean % residual activity
Chain of ERK5 (Q13164 whole entry): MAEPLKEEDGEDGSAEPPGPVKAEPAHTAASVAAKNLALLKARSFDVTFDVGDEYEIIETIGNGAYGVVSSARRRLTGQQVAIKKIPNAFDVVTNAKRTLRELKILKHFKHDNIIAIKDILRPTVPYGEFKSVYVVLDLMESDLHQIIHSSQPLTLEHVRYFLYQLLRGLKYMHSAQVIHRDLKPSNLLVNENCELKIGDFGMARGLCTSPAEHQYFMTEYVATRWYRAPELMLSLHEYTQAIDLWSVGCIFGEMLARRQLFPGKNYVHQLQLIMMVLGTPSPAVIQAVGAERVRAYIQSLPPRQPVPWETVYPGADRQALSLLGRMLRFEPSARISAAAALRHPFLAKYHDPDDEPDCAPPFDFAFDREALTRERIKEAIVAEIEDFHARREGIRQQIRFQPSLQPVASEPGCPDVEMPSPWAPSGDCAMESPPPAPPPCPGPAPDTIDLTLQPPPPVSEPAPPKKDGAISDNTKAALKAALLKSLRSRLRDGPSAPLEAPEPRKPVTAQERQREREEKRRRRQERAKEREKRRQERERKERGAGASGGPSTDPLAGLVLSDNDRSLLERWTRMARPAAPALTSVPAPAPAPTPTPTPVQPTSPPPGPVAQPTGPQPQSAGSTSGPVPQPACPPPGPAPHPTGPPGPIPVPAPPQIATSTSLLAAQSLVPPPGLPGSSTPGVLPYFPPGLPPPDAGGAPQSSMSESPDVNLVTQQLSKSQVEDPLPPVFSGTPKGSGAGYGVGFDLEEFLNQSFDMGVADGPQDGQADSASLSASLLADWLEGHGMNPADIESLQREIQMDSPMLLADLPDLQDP
Procedure: as §1, §2, §3

JNK3 = JNK3 (Homo sapiens (Human), UniProt P53779); test: ICKP protein kinase panel screening; assay type: biochemical; settings: duplicate assays, read-out: mean % residual activity
Chain of JNK3 (P53779 whole entry): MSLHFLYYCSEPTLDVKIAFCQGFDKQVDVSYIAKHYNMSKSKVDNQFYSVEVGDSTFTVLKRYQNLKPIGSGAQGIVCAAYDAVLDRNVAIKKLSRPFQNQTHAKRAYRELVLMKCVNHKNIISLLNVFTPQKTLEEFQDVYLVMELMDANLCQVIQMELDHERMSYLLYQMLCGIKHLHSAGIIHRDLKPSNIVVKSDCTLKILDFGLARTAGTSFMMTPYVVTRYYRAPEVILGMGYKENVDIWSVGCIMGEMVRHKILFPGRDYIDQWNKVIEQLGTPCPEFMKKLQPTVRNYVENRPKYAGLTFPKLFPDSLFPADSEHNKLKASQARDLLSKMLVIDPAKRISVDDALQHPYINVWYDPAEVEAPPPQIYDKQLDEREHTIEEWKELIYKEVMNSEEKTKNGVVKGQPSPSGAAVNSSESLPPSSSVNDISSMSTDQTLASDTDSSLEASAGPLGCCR
Procedure: as §1, §2, §3

p38b MAPK = p38b MAPK (Homo sapiens (Human), UniProt Q15759); test: ICKP protein kinase panel screening; assay type: biochemical; settings: duplicate assays, read-out: mean % residual activity
Chain of p38b MAPK (Q15759 whole entry): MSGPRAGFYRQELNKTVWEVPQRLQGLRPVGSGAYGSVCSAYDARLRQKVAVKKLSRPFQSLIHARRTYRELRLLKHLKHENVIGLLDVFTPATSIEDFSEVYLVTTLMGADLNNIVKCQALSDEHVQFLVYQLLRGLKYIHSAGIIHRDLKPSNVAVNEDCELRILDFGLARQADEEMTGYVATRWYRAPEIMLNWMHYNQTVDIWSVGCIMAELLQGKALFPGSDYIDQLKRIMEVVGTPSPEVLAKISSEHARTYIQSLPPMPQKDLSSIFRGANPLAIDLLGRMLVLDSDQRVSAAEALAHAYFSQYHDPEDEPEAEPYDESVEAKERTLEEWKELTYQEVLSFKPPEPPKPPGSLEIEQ
Procedure: as §1, §2, §3

ERK2 = ERK2 (Homo sapiens (Human), UniProt P28482); test: ICKP protein kinase panel screening; assay type: biochemical; settings: duplicate assays, read-out: mean % residual activity
Chain of ERK2 (P28482 whole entry): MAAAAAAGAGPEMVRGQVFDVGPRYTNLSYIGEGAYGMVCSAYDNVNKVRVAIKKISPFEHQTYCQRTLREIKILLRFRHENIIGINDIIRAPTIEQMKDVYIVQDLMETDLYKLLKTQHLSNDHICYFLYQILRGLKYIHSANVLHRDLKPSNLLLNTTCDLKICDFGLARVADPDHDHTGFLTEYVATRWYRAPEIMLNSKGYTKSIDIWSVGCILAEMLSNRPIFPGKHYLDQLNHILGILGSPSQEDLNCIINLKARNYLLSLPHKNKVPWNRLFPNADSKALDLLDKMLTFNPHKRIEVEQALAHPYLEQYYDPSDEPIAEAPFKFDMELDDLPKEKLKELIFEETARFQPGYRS
Procedure: as §1, §2, §3

CDK5 = CDK5 (Homo sapiens (Human), UniProt Q00535); test: ICKP protein kinase panel screening; assay type: biochemical; settings: duplicate assays, read-out: mean % residual activity
Chain of CDK5 (Q00535 whole entry): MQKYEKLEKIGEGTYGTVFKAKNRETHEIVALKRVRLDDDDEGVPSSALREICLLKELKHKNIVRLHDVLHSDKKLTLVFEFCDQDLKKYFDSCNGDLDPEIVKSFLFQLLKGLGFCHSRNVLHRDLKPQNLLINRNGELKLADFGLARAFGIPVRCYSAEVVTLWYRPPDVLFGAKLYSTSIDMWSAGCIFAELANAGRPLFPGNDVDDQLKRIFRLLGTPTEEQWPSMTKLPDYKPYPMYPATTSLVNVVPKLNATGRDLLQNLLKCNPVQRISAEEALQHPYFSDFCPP
Chain of CDK5 (Q15078 whole entry partner): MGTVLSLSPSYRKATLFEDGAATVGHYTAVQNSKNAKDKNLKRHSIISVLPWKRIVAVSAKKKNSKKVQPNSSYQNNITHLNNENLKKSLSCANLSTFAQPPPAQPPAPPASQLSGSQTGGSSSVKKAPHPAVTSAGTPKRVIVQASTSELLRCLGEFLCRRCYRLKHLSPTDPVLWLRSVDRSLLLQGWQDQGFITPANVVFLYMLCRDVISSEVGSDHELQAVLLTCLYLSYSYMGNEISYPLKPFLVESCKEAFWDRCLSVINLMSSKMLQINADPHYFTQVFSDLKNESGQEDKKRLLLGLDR
Procedure: as §1, §2, §3

p38g MAPK = p38g MAPK (Homo sapiens (Human), UniProt P53778); test: ICKP protein kinase panel screening; assay type: biochemical; settings: duplicate assays, read-out: mean % residual activity
Chain of p38g MAPK (P53778 whole entry): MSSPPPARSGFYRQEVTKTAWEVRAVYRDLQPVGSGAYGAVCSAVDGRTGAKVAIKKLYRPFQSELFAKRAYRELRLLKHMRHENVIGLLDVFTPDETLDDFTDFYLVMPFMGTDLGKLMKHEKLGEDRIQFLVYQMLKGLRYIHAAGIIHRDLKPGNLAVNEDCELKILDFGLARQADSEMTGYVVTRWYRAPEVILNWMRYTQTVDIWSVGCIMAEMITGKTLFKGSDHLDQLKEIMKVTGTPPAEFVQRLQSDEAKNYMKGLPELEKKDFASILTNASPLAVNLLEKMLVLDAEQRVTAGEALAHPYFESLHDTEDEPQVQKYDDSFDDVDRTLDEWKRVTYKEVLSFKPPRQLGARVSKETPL
Procedure: as §1, §2, §3

ERK1 = ERK1 (Homo sapiens (Human), UniProt P27361); test: ICKP protein kinase panel screening; assay type: biochemical; settings: duplicate assays, read-out: mean % residual activity
Chain of ERK1 (P27361 whole entry): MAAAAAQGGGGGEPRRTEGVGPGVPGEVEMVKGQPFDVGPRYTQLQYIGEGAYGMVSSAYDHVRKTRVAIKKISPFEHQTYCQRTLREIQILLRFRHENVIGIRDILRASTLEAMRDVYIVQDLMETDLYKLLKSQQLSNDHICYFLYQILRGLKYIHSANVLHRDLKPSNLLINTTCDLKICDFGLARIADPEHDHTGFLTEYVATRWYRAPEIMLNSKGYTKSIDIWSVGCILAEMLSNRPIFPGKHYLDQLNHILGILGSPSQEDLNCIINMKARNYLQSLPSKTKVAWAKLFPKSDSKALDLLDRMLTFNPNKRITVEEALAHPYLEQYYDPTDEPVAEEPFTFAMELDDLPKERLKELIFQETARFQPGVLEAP
Procedure: as §1, §2, §3

ERK8 = ERK8 (Homo sapiens (Human), UniProt Q8TD08); test: ICKP protein kinase panel screening; assay type: biochemical; settings: duplicate assays, read-out: mean % residual activity
Chain of ERK8 (Q8TD08 whole entry): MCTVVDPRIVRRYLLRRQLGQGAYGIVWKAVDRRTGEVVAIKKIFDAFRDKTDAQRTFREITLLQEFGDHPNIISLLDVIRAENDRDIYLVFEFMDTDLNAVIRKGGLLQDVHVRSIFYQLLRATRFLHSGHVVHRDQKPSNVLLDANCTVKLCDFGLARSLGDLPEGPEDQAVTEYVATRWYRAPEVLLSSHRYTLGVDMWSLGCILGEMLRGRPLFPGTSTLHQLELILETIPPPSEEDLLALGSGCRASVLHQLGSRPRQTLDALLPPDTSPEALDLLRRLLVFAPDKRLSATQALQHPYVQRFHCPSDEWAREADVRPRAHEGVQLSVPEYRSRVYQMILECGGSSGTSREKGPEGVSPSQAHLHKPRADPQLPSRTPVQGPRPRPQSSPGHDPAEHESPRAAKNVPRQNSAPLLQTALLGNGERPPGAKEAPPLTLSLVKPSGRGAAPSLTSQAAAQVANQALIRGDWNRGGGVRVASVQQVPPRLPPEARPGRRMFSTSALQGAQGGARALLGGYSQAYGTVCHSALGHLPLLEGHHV
Procedure: as §1, §2, §3

[2] = system: inflammatory MA (face CFA model); test: Face Complete Freund's Adjuvant (CFA) model of inflammatory mechanical allodynia; assay type: in vivo; settings: rat, 10 mg/kg intra-peritoneally, 30 min before CFA

SMILES: O=c1[nH]cc(Nc2ccccc2)cc1-c1ccccc1Br [Compound 69, 3-(2-Bromophenyl)-5-(phenylamino)pyridin-2(1H)-one]
- reversal of neuropathic MA (allodynic score) [1]: reversed MA; also recorded: quickly reversed
- remaining activity at 1 µM (p38d MAPK): 112%
- remaining activity at 1 µM (JNK2): 103%
- remaining activity at 1 µM (CDK2-Cyclin A): 119%
- remaining activity at 1 µM (ERK5): 101%
- remaining activity at 1 µM (JNK3): 115%
- remaining activity at 1 µM (p38b MAPK): 116%
- remaining activity at 1 µM (ERK2): 109%
- remaining activity at 1 µM (CDK5): 103%
- remaining activity at 1 µM (p38g MAPK): 103%
- remaining activity at 1 µM (ERK1): 120%
- remaining activity at 1 µM (ERK8): 144%
- prevention of inflammatory MA (allodynic score), systemic application [2]: completely suppressed
